Experiments:
Primary rat hepatocytes = assay: MTS/PMS cell viability (hepatotoxicity) assay, 24-hour exposure; type: cell-based; conditions: Hepatocyte, 9-point dilution series, read-out: IC50 (cell viability, formazan absorbance as percent of untreated control)
Procedure: To measure the viability of hepatocytes after plating, an aqueous CellTiter Non-radioactive Cell Proliferation Assay may be used (Promega, Madison, Wis.). This assay can also be used to measure the hepatoxicity of a test compound.
In one example of the assay, hepatoxicity is determined by assaying rat hepatocytes for viability following a 24-hour exposure to a 9-point dilution series of compound (to allow assessment of dose). Cell viability is determined by measuring the absorbance of formazon, a product formed by the bioreduction of MTS/PMS, commercially available reagents. […]
With reference to FIG. 6, in a sterile 2 mL v-bottom assay block, dispense 2.5 μl of compound at 400× highest desired concentration to wells in column 3, rows B through G. (six different compounds per block, one for each row, edge wells are not used due to evaporation). […] Next, add 250 μL of media containing 0.2% Triton X-100 to column 2, rows E, F, and G. ODs (optical density or absorbance) from this well will be used to subtract out for background absorbance of dead cells and vehicle. […]
Day 3—MTS Addition and OD Reading
A. After 24 hours of incubation with drug, remove plates from incubator and add 40 μl MTS/PMS to each well. […] Read ODs at 490 nm after a 5 second shaking cycle in a ninety-six well spectrophotometer. […]

bile flow = conditions: rats; cited from earlier work
[1] = system: human hepatoma cell line HepG2; conditions: HepG2 cells incubated with compound; previous studies; cited from earlier work

Q: With `O=c1ccc2ccccc2o1` [Coumarin] as the compound, how does the IC50 (Primary rat hepatocytes) read?
A: ~53 µM

Q: Which “effect on bile flow” value (bile flow) does the source give for `C=C1[C@@H](C)[C@H]2[C@H](Cc3ccccc3)NC(=O)[C@]23OC(=O)/C=C/[C@H](O)CCC[C@@H](C)C/C=C/[C@H]3[C@@H]1O` [cytochalasin B] here?
A: prompt arrest of bile flow

Q: For `CCSCC[C@H](N)C(=O)O` [ethionine], which “Nile Red binding (lipid accumulation)” value [1] is on record?
A: increased Nile Red binding

Q: For `CCCC(CCC)C(=O)O` [valproic acid], which “Nile Red binding (lipid accumulation)” value [1] is on record?
A: increased Nile Red binding

Q: For estrogen, which “Nile Red binding (lipid accumulation)” value [1] is on record?
A: increased Nile Red binding
